From US20230181539A1, “METHODS FOR THE TREATMENT OF CORONAVIRUS INFECTIONS” (INSERM (INSTITUT NATIONAL DE LA SANTÉ ET DE LA RECHERCHE …, priority 2020, published 2023)
Where two headings read alike, the source gives them in different places.

System: SARS-CoV-2 strain BavPat1
Assay: Determination of EC50 and EC90: inhibition of SARS-CoV-2 viral RNA replication in Vero E6 cells (RT-qPCR)
Type: cell-based
Conditions: Severe acute respiratory syndrome coronavirus 2, Vero C1008, 48 h, read-out: EC50 (compound concentration required to inhibit viral RNA replication by 50%)

Row | Structure (SMILES) | EC50 (Vero E6 cells, MOI 0.002, 2 days of culture, viral RNA in supernatant) [nM] | EC50 [nM]
1 | CCn1c(CO)nn(-c2cc(O[C@@H](C)C(F)(F)F)c(C(=O)Nc3c(F)cccc3Cl)cc2F)c1=O [BAY-2402234, N-(2-Chloro-6-fluorophenyl)-4-[4-ethyl-3-(hydroxymethyl)-5-oxo-1,2,4-triazol-1-yl]-5-fluoro-2-[(2S)-1,1,1-trifluoropropan-2-yl]oxybenzamide] | < 40 | 
2 | CCC(CC)COC(=O)[C@H](C)N[P@](=O)(OC[C@H]1O[C@@](C#N)(c2ccc3c(N)ncnn23)[C@H](O)[C@@H]1O)Oc1ccccc1 [remdesivir, Remdesivir] |  | 2700
